Assay [1] has as its system U-937. As to the kind of experiment: Induction of apoptosis in human U-937 cells assessed as necrotic cells at 0.5 uM measured after 24 hrs by annexinV/FITC-propidium iodide staining based flow cytometry (reference value: 1.12 to 1.48 %). The format is functional.
Assay [2] relates to U-937. The assay can be described thus: Cytotoxicity against human U-937 cells assessed as cell viability at 3.3 uM measured after 24 hrs by CCK8 assay relative to control. The format is functional. The following applies: read-out: Activity. In general terms: Formazan colour is commonly taken as a measure of viable cells.
Assay [3] relates to U-937. The assay can be described thus: Induction of apoptosis in human U-937 cells assessed as late apoptotic cells at 1 uM measured after 24 hrs by annexinV/FITC-propidium iodide staining based flow cytometry (reference value: 2.18 to 2.22 %). The format is functional.
Assay [4] deals with U-937. As to the kind of experiment: Induction of apoptosis in human U-937 cells assessed as necrotic cells at 1 uM measured after 24 hrs by annexinV/FITC-propidium iodide staining based flow cytometry (reference value: 1.12 to 1.48 %). The format is functional.
Assay [5] relates to K562. The assay can be described thus: Cytotoxicity against human K562 cells assessed as cell viability at 0.37 uM measured after 48 hrs by CCK8 assay relative to control. The format is functional. The following applies: read-out: Activity.
Assay [6] has as its system HT-29. The assay can be described thus: Cytotoxicity against human HT-29 cells assessed as reduction in cell viability measured after 72 hrs by CCK8 assay. It counts as functional, cell-based. The following applies: Homo sapiens, HT-29, 72 h; read-out: IC50.
Assay [7] deals with K562. The assay can be described thus: Cytotoxicity against human K562 cells assessed as reduction in cell viability measured after 24 to 72 hrs by CCK8 assay. The note with it: dose 0.37-3.3 µM, time 24-72 hrs. The format is functional, cell-based.
Assay [8] has as its system U-937. The assay can be described thus: Induction of apoptosis in human U-937 cells assessed as necrotic cells at 2 uM measured after 24 hrs by annexinV/FITC-propidium iodide staining based flow cytometry (reference value: 1.12 to 1.48 %). It counts as functional. (A flow cytometer gives signals particle by particle.)
Assay [9] relates to MCF7. The assay can be described thus: Cytotoxicity against human MCF7 cells assessed as reduction in cell viability measured after 72 hrs by CCK8 assay. The following applies: Homo sapiens, MCF7, 72 h; read-out: IC50. The format is functional, cell-based.
Assay [10] concerns U-937. As to the kind of experiment: Induction of apoptosis in human U-937 cells assessed as late apoptotic cells at 2 uM measured after 48 hrs by annexinV/FITC-propidium iodide staining based flow cytometry (reference value: 3.27 to 3.41 %). The format is functional.
Assay [11] relates to U-937. The assay can be described thus: Cytotoxicity against human U-937 cells assessed as cell viability at 1.1 uM measured after 48 hrs by CCK8 assay relative to control. It counts as functional. The note with it: read-out: Activity.
The subject of assay [12] is K562. The assay can be described thus: Cytotoxicity against human K562 cells assessed as cell viability at 3.3 uM measured after 48 hrs by CCK8 assay relative to control. The following applies: read-out: Activity. The format is functional.
Assay [13] concerns U-937. As to the kind of experiment: Induction of apoptosis in human U-937 cells assessed as early apoptotic cells at 2 uM measured after 48 hrs by annexinV/FITC-propidium iodide staining based flow cytometry (reference value: 1.78 to 1.88 %). The format is functional.
Assay [14] concerns K562. As to the kind of experiment: Cytotoxicity against human K562 cells assessed as cell viability at 3.3 uM measured after 72 hrs by CCK8 assay relative to control. It counts as functional. The following applies: read-out: Activity.
Assay [15] relates to HeLa. The assay can be described thus: Cytotoxicity against human HeLa cells assessed as reduction in cell viability measured after 72 hrs by CCK8 assay. The note with it: Homo sapiens, HeLa, 72 h; read-out: IC50. The format is functional, cell-based.
Assay [16] has as its system U-937. The assay can be described thus: Cytotoxicity against human U-937 cells assessed as cell viability at 1.1 uM measured after 72 hrs by CCK8 assay relative to control. The format is functional. The note with it: read-out: Activity.
For assay [17], the system named is U-937. The assay can be described thus: Induction of apoptosis in human U-937 cells assessed as early apoptotic cells at 1 uM measured after 24 hrs by annexinV/FITC-propidium iodide staining based flow cytometry (reference value: 1.28 to 1.68 %). It counts as functional.
Assay [18] relates to K562. The assay can be described thus: Cytotoxicity against human K562 cells assessed as cell viability at 3.3 uM measured after 24 hrs by CCK8 assay relative to control. It counts as functional. The following applies: read-out: Activity.
Assay [19] has as its system U-937. As to the kind of experiment: Induction of apoptosis in human U-937 cells assessed as viable cells at 1 uM measured after 24 hrs by annexinV/FITC-propidium iodide staining based flow cytometry (reference value: 95 to 95.1 %). It counts as functional. The note with it: read-out: Activity.
In assay [20] the test system is U-937. The assay can be described thus: Cytotoxicity against human U-937 cells assessed as cell viability at 0.37 uM measured after 24 hrs by CCK8 assay relative to control. The format is functional. The following applies: read-out: Activity.
The subject of assay [21] is U-937. As to the kind of experiment: Induction of apoptosis in human U-937 cells assessed as early apoptotic cells at 1 uM measured after 48 hrs by annexinV/FITC-propidium iodide staining based flow cytometry (reference value: 1.78 to 1.88 %). The format is functional.
The subject of assay [22] is U-937. The assay can be described thus: Induction of apoptosis in human U-937 cells assessed as early apoptotic cells at 0.5 uM measured after 48 hrs by annexinV/FITC-propidium iodide staining based flow cytometry (reference value: 1.78 to 1.88 %). It counts as functional.
Assay [23] deals with U-937. The assay can be described thus: Induction of apoptosis in human U-937 cells assessed as viable cells at 2 uM measured after 48 hrs by annexinV/FITC-propidium iodide staining based flow cytometry (reference value: 93.7 to 94.2 %). The format is functional. The note with it: read-out: Activity.

Structures are written as SMILES.

On to `C=CCn1c(=O)/c(=C/CCCC)[nH]c(=O)/c1=C/c1ccc(OC)cc1`, for which the Activity was 1.07% in assay [1]; 8.23% in [3]; 1.13% in assay [4]; “Dose-dependent effect” in [7]; 1.22% in [8]; 35.1% in [10]. The Activity stood at 9.76% in assay [13], 7.63% in assay [17], 10.8% in assay [21] and 7.77% in assay [22]. Further, the viability at 3.3 µM came to 1.6% in assay [2], 8.6% in assay [12], 3.5% in [14] and 31% in assay [18]. Further, the viability at 0.37 µM turned out to be 90.9% in assay [5] and 70.5% in assay [20]. Moreover, the figures for the IC50 in assay [6], in assay [9] and in [15] were 1.2 µM, 1.9 µM and 0.9 µM, respectively. For the same molecule, the viability at 1.1 µM was 8.8% in [11] and 3.3% in [16]. The viability at 1 µM in [19] is 82.6%. For the same molecule, the viability at 2 µM in [23] came to 52.7%.

Source of the values: ChEMBL document CHEMBL4715742, “Design, synthesis and cytotoxic activities of novel 2,5-diketopiperazine derivatives” (Eur J Med Chem, 2016).
